Here are results for 9 molecules from US11666561B2, “Compounds for use in regulating follicle maturation” (AARHUS UNIVERSITET, priority 2017, dated 2023).

For this assay, the system named is primordial-to-primary follicle transition. In words: In vitro organ culture of mouse ovaries with compound, H&E histology and counting of primordial, primary and secondary follicles. Conditions: marked (ongoing). On the procedure: Ovaries obtained from mice were washed twice with culture medium. Antagonists or agonists to be tested were dissolved in suitable solvents and added to the medium. As a control medium comprising solvent without the antagonist or agonist was used. One of the ovaries was cultured in a control medium and another was cultured with the antagonist or agonist. The tested antagonists or agonists and their concentrations are outlined in table 2.
Ovaries were incubated with antagonist at 37° C. and 5% CO2 for 24 and 96 hours, respectively (see table 3).
Cultures ovaries were fixed, embedded in paraffin and sliced microscopy. The sectioned ovaries were stained with hematoxylin and eosin (H&E) to visualize the morphology of the ovary by microscopy.
The number of primordial, primary and secondary follicles was determined, and it was determined whether the antagonist or agonist was capable of regulating folliculogenesis.
C57BL/6j×CBA F1 hybrid mice (Janvier Labs, France) were housed and bred in the animal facilities at Department of Biomedicine, Aarhus University. Animals were housed in a 12:12 h controlled light-dark environment and were provided with food and water ad libitum. 7-day-old female pups were used for the study.
Pups were sacrificed and ovaries were excised. Using a stereomicroscope MZ75 (Leica Microsystems, Germany), excess tissue was removed. During the dissection, ovaries were kept at 37° C. in culture medium: aMEM (Thermo Fisher) supplemented with 10% FBS (Thermo Fisher), 100 mIU/mL of FSH (Sigma-Aldrich), 100 IU/mL penicillin (Thermo Fisher), 100 μg/mL streptomycin (Thermo Fisher) and 1% Insulin-Transferrin-Selenium (Thermo Fisher). Isolated ovaries were transferred into well inserts (PET membrane ThinCert, 0.4 μm-pore size; Greiner bio-one) in 24-well plates (Tissue culture treated, cell culture plates; Costar). 200-300 μL of culture medium was added to the well below the insert and up to two ovaries were placed on the membrane of each insert. The culture medium was supplemented with different concentrations of the tested compounds; bpV(HOpic) (Sigma-Aldrich), Temsirolimus (Sigma-Aldrich), Ketotifen (Sigma-Aldrich), 3PO (Sigma-Aldrich), Dorsomorphin (Sigma-Aldrich), AICAR (Sigma-Aldrich), NCG (Sigma-Aldrich), and Dyphylline (Cayman Chemical). Up to six wells in the 24-well plate were used for inserts. Sterile dH2O was added to the rest of the wells to ensure humidity and reduce evaporation. The ovaries were cultured at 37° C., 5% CO2 for four days. 150 μL of medium was replaced every other day with fresh culture medium.
Ovaries kept in organ culture for four days were fixed for 24 hours in 4% paraformaldehyde solution at 4° C. After fixation, ovaries were dehydrated in ethanol series using 70%, 96% and 99.9% ethanol. Xylene was used as clearing agent before the ovaries were infiltrated in paraffin wax. 5 μm-sections of samples in paraffin were cut using a microtome (Cut 6062, SLEE medical, Germany). Paraffin sections were mounted on glass slides, paraffin was melted at 60° C., and the samples were stained with hematoxylin and eosin (using standard protocols).
The samples were deparaffinized by incubating in xylene for 2×15 min. and subsequently rehydrated in series of ethanol; 3×2 min. in 99.9% ethanol, 2 min. in 96% ethanol, and 2 min. in 70% ethanol. The samples were then rinsed in dH2O, stained in hematoxylin for 40 sec., rinsed in dH2O for 5 min., and stained in eosin for 46 sec. The samples were dehydrated in ethanol: 2×2 min. in 96% ethanol, 2×2 min in 99.9% ethanol, and finally cleared up in xylene for at least 30 min before mounting the samples using Eukitt mounting medium (Sigma-Aldrich) and cover glass.
The number of follicles at each developmental stage was counted using an inverted research microscope (DM14000B, Leica Microsystems, Germany). The follicles of every 3rd to 4th section of each ovary were counted and the distribution of follicles in the different stages in percentage was determined.

On to `CN(C)C/C=C/C(=O)Nc1cc2c(Nc3ccc(F)c(Cl)c3)ncnc2cc1O[C@H]1CCOC1` [Afatinib, (E)-N-[4-(3-chloro-4-fluoroanilino)-7-[(3S)-oxolan-3-yl]oxyquinazolin-6-yl]-4-(dimethylamino)but-2-enamide], for which the Effect result is, setting by setting: (Table 1) “promotes”; (Table 2) “promotes”.
`CCOc1cc(C(C)(C)C)ccc1C1=N[C@@](C)(c2ccc(Cl)cc2)[C@@](C)(c2ccc(Cl)cc2)N1C(=O)N1CCN(CCCS(C)(=O)=O)CC1` [RO5045337, [(4S,5R)-2-(4-tert-butyl-2-ethoxyphenyl)-4,5-bis(4-chlorophenyl)-4,5-dimethylimidazol-1-yl]-[4-(3-methylsulfonylpropyl)piperazin-1-yl]methanone]: the Effect result (Table 1) is on record as “promotes” and the Effect result (Table 2) is “promotes”.
For `OCCN(CCO)c1nc(N2CCCCC2)c2nc(N(CCO)CCO)nc(N3CCCCC3)c2n1` [Dipyridamole, 2-[[2-[bis(2-hydroxyethyl)amino]-4,8-di(piperidin-1-yl)pyrimido[5,4-d]pyrimidin-6-yl]-(2-hydroxyethyl)amino]ethanol], the Effect entry (Table 1) is “promotes” and the Effect entry (Table 2) is on record as “promotes”.
On to `CCOc1cc2ncc(C#N)c(Nc3ccc(OCc4ccccn4)c(Cl)c3)c2cc1NC(=O)/C=C/CN(C)C` [AVE1642, (E)-N-[4-[3-chloro-4-(pyridin-2-ylmethoxy)anilino]-3-cyano-7-ethoxyquinolin-6-yl]-4-(dimethylamino)but-2-enamide], for which the Effect result (Table 1) is on record as “promotes” and the Effect entry (Table 2) was “promotes”.
Regarding `COc1cc(C(=O)O)ccc1NC(=O)[C@@H]1N[C@@H](CC(C)(C)C)[C@](C#N)(c2ccc(Cl)cc2F)[C@H]1c1cccc(Cl)c1F` [Idasanutlin, 4-{[(3S,4R,5S)-3-(3-Chloro-2-fluorophenyl)-4-(4-chloro-2-fluorophenyl)-4-cyano-5-(2,2-dimethylpropyl)-D-prolyl]amino}-3-methoxybenzoic acid], the Effect result reads like this: (Table 1) “promotes”; (Table 2) “promotes”.
For the molecule `O=C(O)c1cc(N(Cc2ccccc2O)Cc2cc(O)ccc2O)ccc1O` [Lavendustin, 5-amino-((N-2,5-dihydroxybenzyl)-N′-2-hydroxybenzyl)aminosalicylic acid], the Effect entry runs as follows: (Table 1) “promotes”; (Table 2) “promotes”.
Turning to `Cc1nccc2[nH]c(=O)ccc12` [Medorinone, 5-methyl-1H-1,6-naphthyridin-2-one], the Effect result is, setting by setting: (Table 1) “promotes”; (Table 2) “promotes”.

B1: MM-141: tetravalent bispecific antibody targeting IGF-1 receptor and ERBB3 (antibody, chains of the INN, looked up, V domains shown)
VH: EVQLLQSGGGLVQPGGSLRLSCAASGFMFSRYPMHWVRQAPGKGLEWVGSISGSGGATPYADSVKGRFTISRDNSKNTLYLQMNSLRAEDTAVYYCAKDFYQILTGNAFDYWGQGTTVTVSS
VL: DIQMTQSPSSLSASLGDRVTITCRASQGISSYLAWYQQKPGKAPKLLIYAKSTLQSGVPSRFSGSGSGTDFTLTISSLQPEDSATYYCQQYWTFPLTFGGGTKVEIK
VH2: QVQLVQSGGGLVQPGGSLRLSCAASGFTFDDYAMHWVRQAPGKGLEWVAGISWDSGSTGYADSVKGRFTISRDNAKNSLYLQMNSLRAEDTALYYCARDLGAYQWVEGFDYWGQGTLVTVSS
VL2: SYELTQDPAVSVALGQTVRITCQGDSLRSYYASWYQQKPGQAPVLVIYGKNNRPSGIPDRFSGSTSGNSASLTITGAQAEDEADYYCNSRDSPGNQWVFGGGTKVTVL
Consider B1, for which the Effect result was “promotes” (Table 1) and “promotes” (Table 2).

B2: BI 836845: humanised IgG1 monoclonal antibody that binds to and neutralises IGF-1 and IGF-2 (antibody, chains of the INN, looked up, V domains shown)
VH: QVELVESGGGLVQPGGSLRLSCAASGFTFTSYWMSWVRQAPGKGLELVSSITSYGSFTYYADSVKGRFTISRDNSKNTLYLQMNSLRAEDTAVYYCARNMYTHFDSWGQGTLVTVSS
VL: DIVLTQPPSVSGAPGQRVTISCSGSSSNIGSNSVSWYQQLPGTAPKLLIYDNSKRPSGVPDRFSGSKSGTSASLAITGLQSEDEADYYCQSRDTYGYYWVFGGGTKLTVL
With B2, the Effect entry by setting is: (Table 1) “promotes”; (Table 2) “promotes”.
